Values of other authors in patent US20070104771A1, “Transdermal galantamine delivery system” (priority 2005, published 2007).

**Q.** For COc1ccc2c3c1OC1CC(O)C=CC31CCN(C)C2 (stereo not shown) [galantamine, 4a, 5,9, 10, 11, 12-Hexahydro-3-methoxy-11-methyl-6H-benzofuro (3a, 3,2-ef) (2) benzazepin-6-ol], which oral bioavailability is on record?
**A.** Its oral bioavailability is 90%.
